From patent US11541081B2, “Methods and compositions for changing the composition of the skin microbiome using complex mixtures of bacterial strains” (priority 2016, dated 2023)

Key:
[1] = tested on: skin microbiome; experiment: Pilot clinical study: bacterial species composition of skin microbiome (16S); type: in vivo, human; conditions: after BPO application (Day 7)
Procedure: (§1) The pilot study was performed for 6 weeks with 14 subjects between 18-23 years. The primary endpoints were safety and efficacy trends. Two different bacterial formulations: A2 (a 2-strain mixture comprising strains C3 and K8 of P. acnes) and B4 (a 4-strain mixture comprising strains C3, K8, A5, and F4 of P. acnes) were tested.
(§2) Subjects were randomly distributed into two arms with different bacterial formulations administered to the subjects in each arm. Bacterial formulations were double-blinded: Arm 1: n=8 subjects received formulation A2. Arm 2: n=6 subjects received formulation B4. Subjects were evaluated on Day 1, Day 7, Day 21, and Day 42. In the first week, between Day 1 and Day 7, all subjects received Benzoyl peroxide (BPO) treatment (applied once a day). In the following 5 weeks, between Day 7 and Day 42, all subjects received bacterial formulation (gel applied 2× per day). FIG. 8A depicts the design of the pilot study.
The composition of bacterial species (16S) in the microbiome samples were analyzed on each visit. […]
When relating the bacterial species (16S) data with the strain level data (SLST) of P. acnes, it was observed that on Day 1 (ground state) the relative abundance of P. acnes was lower in acceptors (34%) compared to non-acceptors (41%). […] Relative abundances were determined using classical 16S amplicon sequencing. […]

[2] = tested on: acne patients; experiment: Pilot clinical study: safety evaluation; type: in vivo, human; conditions: BPO once a day, Day 1-Day 7, 14 subjects
Procedure: as §1, §2
The safety of the administered formulations was evaluated, for example, by visual evaluation of the redness, irritation or any other skin problems during each visit. No safety issues were observed during the study. Seven subjects reported dry or red skin during the use of BPO (Day 1-Day 7). […] No adverse effects were observed associated with the administration of live bacteria.

[3] = MBC test, 24 h exposure to benzoic acid, then 4 days on RCM agar; conditions: all P. acnes strains tested
[4] = tested on: P. acnes strains; experiment: Inhibition of P. acnes strains by salicylic acid; type: cell-based
[5] = tested on: P. acnes; conditions: Allgaier et al., 1985; cited from earlier work

Molecule: O=C(OOC(=O)c1ccccc1)c1ccccc1 [BPO, Benzoyl peroxide]
- change of total P. acnes population [1]: decrease
- subjects reporting dry or red skin [2]: Seven

Molecule: O=C(O)c1ccccc1 [Benzoic acid]
- concentration of benzoic acid affecting the growth of all strains (MBC test) [3]: greater than 0.31 % vol/vol

Molecule: O=C(O)c1ccccc1O [salicylic acid]
- inhibition of P. acnes strains [4]: not inhibited

Molecule: Epidermin
- activity against P. acnes [5]: highly active
